# Data: ChEMBL document CHEMBL3885861, “Open TG-GATES”
# Species on record: Rattus norvegicus
# Experiment: Open TG-GATES - Regimen: Daily Repeat
# Format: toxicity, organism-based, Sprague-Dawley
# Parameters: regimen Daily Repeat, gender Male, age 6 weeks
# Details: in vivo, po, 0 mg/kg, route gavage, dose level Control; for APTT / Bas / Eos / Fbg / Hb / Ht / Lym / MCH / MCHC / MCV / Mono / Neu / PT / Plat / RBC / Ret / WBC: tissue Blood; for KIDNEY_L / KIDNEY_R / KIDNEY_TOTAL: tissue Kidney; for LIVER: tissue Liver; for A/G / ALP / ALT / AST / BUN / CRE / Ca / Cl / DBIL / GLC / IP / K / LDH / Na / PL / RALB / TBIL / TC / TG / TP / gamma-GTP: tissue Plasma
compound,measurement,setting,value
CC1=C(/C=C/C(C)=C/C=C/C(C)=C/CO)C(C)(C)CCC1 [RETINOL],TERMINAL_BW,"72 h, time 3 day",232.6 g
same,APTT,"72 h, time 3 day",21.2 s
same,Bas,"72 h, time 3 day",0%
same,Eos,"72 h, time 3 day",0.8%
same,Fbg,"72 h, time 3 day",302.6 mg/dL
same,Hb,"72 h, time 3 day",13.6 g/dL
same,Ht,"72 h, time 3 day",39.5%
same,Lym,"72 h, time 3 day",81.8%
same,MCH,"72 h, time 3 day",21.4 pg
same,MCHC,"72 h, time 3 day",34.4%
same,MCV,"72 h, time 3 day",62 fL
same,Mono,"72 h, time 3 day",2.8%
same,Neu,"72 h, time 3 day",14%
same,PT,"72 h, time 3 day",16.6 s
same,Plat,"72 h, time 3 day",116.8 x10_4/uL
same,RBC,"72 h, time 3 day",637 x10_4/ul
same,Ret,"72 h, time 3 day",6.6%
same,WBC,"72 h, time 3 day",108.7 x10_2/uL
same,KIDNEY_L,"72 h, time 3 day",1.1 g
same,KIDNEY_R,"72 h, time 3 day",1.1 g
same,KIDNEY_TOTAL,"72 h, time 3 day",2.1 g
same,LIVER,"72 h, time 3 day",11 g
same,A/G,"72 h, time 3 day",1.2
same,ALP,"72 h, time 3 day",1642.8 IU/L
same,ALT,"72 h, time 3 day",49.4 IU/L
same,AST,"72 h, time 3 day",76.2 IU/L
same,BUN,"72 h, time 3 day",18.6 mg/dL
same,CRE,"72 h, time 3 day",0.1 mg/dL
same,Ca,"72 h, time 3 day",10.9 mg/dL
same,Cl,"72 h, time 3 day",106.8 meq/L
same,DBIL,"72 h, time 3 day",0 mg/dL
same,GLC,"72 h, time 3 day",199.8 mg/dL
same,IP,"72 h, time 3 day",6.8 mg/dL
same,K,"72 h, time 3 day",4.6 meq/L
same,LDH,"72 h, time 3 day",251.8 IU/L
same,Na,"72 h, time 3 day",141.2 meq/L
same,PL,"72 h, time 3 day",145.4 mg/dL
same,RALB,"72 h, time 3 day",3 g/dL
same,TBIL,"72 h, time 3 day",0.012 mg/dL
same,TC,"72 h, time 3 day",76.2 mg/dL
same,TG,"72 h, time 3 day",94.8 mg/dL
same,TP,"72 h, time 3 day",5.5 g/dL
same,gamma-GTP,"72 h, time 3 day",1 IU/L
same,TERMINAL_BW,"[…], time 7 day",257.6 g
same,TERMINAL_BW,"[…], time 14 day",301.9 g
same,TERMINAL_BW,"[…], time 28 day",374.5 g
same,APTT,"[…], time 7 day",20.5 s
same,Bas,"[…], time 7 day",0%
same,Eos,"[…], time 7 day",0.8%
same,Fbg,"[…], time 7 day",304.8 mg/dL
same,Hb,"[…], time 7 day",13.6 g/dL
same,Ht,"[…], time 7 day",38.8%
same,Lym,"[…], time 7 day",79.6%
same,MCH,"[…], time 7 day",20.9 pg
same,MCHC,"[…], time 7 day",35.1%
same,MCV,"[…], time 7 day",59.7 fL
same,Mono,"[…], time 7 day",2.2%
same,Neu,"[…], time 7 day",16.4%
same,PT,"[…], time 7 day",16.3 s
same,Plat,"[…], time 7 day",117.2 x10_4/uL
same,RBC,"[…], time 7 day",650.4 x10_4/ul
same,Ret,"[…], time 7 day",5.1%
same,WBC,"[…], time 7 day",114.1 x10_2/uL
same,APTT,"[…], time 14 day",21.4 s
same,Bas,"[…], time 14 day",0%
same,Eos,"[…], time 14 day",0.4%
same,Fbg,"[…], time 14 day",312 mg/dL
same,Hb,"[…], time 14 day",13.7 g/dL
same,Ht,"[…], time 14 day",38.7%
same,Lym,"[…], time 14 day",78%
same,MCH,"[…], time 14 day",20.9 pg
same,MCHC,"[…], time 14 day",35.4%
same,MCV,"[…], time 14 day",59.2 fL
same,Mono,"[…], time 14 day",2%
same,Neu,"[…], time 14 day",18.2%
same,PT,"[…], time 14 day",16.1 s
same,Plat,"[…], time 14 day",122.4 x10_4/uL
same,RBC,"[…], time 14 day",654 x10_4/ul
same,Ret,"[…], time 14 day",5.2%
same,WBC,"[…], time 14 day",121.8 x10_2/uL
same,APTT,"[…], time 28 day",24.2 s
same,Bas,"[…], time 28 day",0%
same,Eos,"[…], time 28 day",1%
same,Fbg,"[…], time 28 day",354.8 mg/dL
same,Hb,"[…], time 28 day",15.1 g/dL
same,Ht,"[…], time 28 day",42.6%
same,Lym,"[…], time 28 day",83.8%
same,MCH,"[…], time 28 day",19.5 pg
same,MCHC,"[…], time 28 day",35.5%
same,MCV,"[…], time 28 day",54.8 fL
same,Mono,"[…], time 28 day",1.6%
same,Neu,"[…], time 28 day",12.6%
same,PT,"[…], time 28 day",15.8 s
same,Plat,"[…], time 28 day",113.8 x10_4/uL
same,RBC,"[…], time 28 day",778.2 x10_4/ul
same,Ret,"[…], time 28 day",2.6%
same,WBC,"[…], time 28 day",112.5 x10_2/uL
same,KIDNEY_L,"[…], time 7 day",1.1 g
same,KIDNEY_R,"[…], time 7 day",1.1 g
same,KIDNEY_TOTAL,"[…], time 7 day",2.2 g
same,KIDNEY_L,"[…], time 14 day",1.2 g
same,KIDNEY_R,"[…], time 14 day",1.2 g
same,KIDNEY_TOTAL,"[…], time 14 day",2.4 g
same,KIDNEY_L,"[…], time 28 day",1.4 g
same,KIDNEY_R,"[…], time 28 day",1.4 g
same,KIDNEY_TOTAL,"[…], time 28 day",2.7 g
same,LIVER,"[…], time 7 day",12.5 g
same,LIVER,"[…], time 14 day",13.8 g
same,LIVER,"[…], time 28 day",15.6 g
same,A/G,"[…], time 7 day",1.3
same,ALP,"[…], time 7 day",1920 IU/L
same,ALT,"[…], time 7 day",39.6 IU/L
same,AST,"[…], time 7 day",67.6 IU/L
same,BUN,"[…], time 7 day",17.4 mg/dL
same,CRE,"[…], time 7 day",0.2 mg/dL
same,Ca,"[…], time 7 day",10.7 mg/dL
same,Cl,"[…], time 7 day",106.4 meq/L
same,DBIL,"[…], time 7 day",0 mg/dL
same,GLC,"[…], time 7 day",189 mg/dL
same,IP,"[…], time 7 day",6.2 mg/dL
same,K,"[…], time 7 day",4.4 meq/L
same,LDH,"[…], time 7 day",219.6 IU/L
same,Na,"[…], time 7 day",142 meq/L
same,PL,"[…], time 7 day",145.2 mg/dL
same,RALB,"[…], time 7 day",3.2 g/dL
same,TBIL,"[…], time 7 day",0.002 mg/dL
same,TC,"[…], time 7 day",74 mg/dL
same,TG,"[…], time 7 day",109.6 mg/dL
same,TP,"[…], time 7 day",5.6 g/dL
same,gamma-GTP,"[…], time 7 day",1.2 IU/L
same,A/G,"[…], time 14 day",1.3
same,ALP,"[…], time 14 day",1383 IU/L
same,ALT,"[…], time 14 day",34.6 IU/L
same,AST,"[…], time 14 day",64.6 IU/L
same,BUN,"[…], time 14 day",17.4 mg/dL
same,CRE,"[…], time 14 day",0.2 mg/dL
same,Ca,"[…], time 14 day",10.8 mg/dL
same,Cl,"[…], time 14 day",106 meq/L
same,DBIL,"[…], time 14 day",0 mg/dL
same,GLC,"[…], time 14 day",201.8 mg/dL
same,IP,"[…], time 14 day",6.1 mg/dL
same,K,"[…], time 14 day",4.2 meq/L
same,LDH,"[…], time 14 day",226.8 IU/L
same,Na,"[…], time 14 day",142 meq/L
same,PL,"[…], time 14 day",152 mg/dL
same,RALB,"[…], time 14 day",3.2 g/dL
same,TBIL,"[…], time 14 day",0.004 mg/dL
same,TC,"[…], time 14 day",74.8 mg/dL
same,TG,"[…], time 14 day",103 mg/dL
same,TP,"[…], time 14 day",5.9 g/dL
same,gamma-GTP,"[…], time 14 day",1.2 IU/L
same,A/G,"[…], time 28 day",1.2
same,ALP,"[…], time 28 day",1062.8 IU/L
same,ALT,"[…], time 28 day",43.4 IU/L
same,AST,"[…], time 28 day",65.4 IU/L
same,BUN,"[…], time 28 day",16.8 mg/dL
same,CRE,"[…], time 28 day",0.2 mg/dL
same,Ca,"[…], time 28 day",10.6 mg/dL
same,Cl,"[…], time 28 day",106 meq/L
same,DBIL,"[…], time 28 day",0 mg/dL
same,GLC,"[…], time 28 day",194 mg/dL
same,IP,"[…], time 28 day",6.3 mg/dL
same,K,"[…], time 28 day",4 meq/L
same,LDH,"[…], time 28 day",145.6 IU/L
same,Na,"[…], time 28 day",141.2 meq/L
same,PL,"[…], time 28 day",147 mg/dL
same,RALB,"[…], time 28 day",3.3 g/dL
same,TBIL,"[…], time 28 day",0.026 mg/dL
same,TC,"[…], time 28 day",78 mg/dL
same,TG,"[…], time 28 day",100.8 mg/dL
same,TP,"[…], time 28 day",6.1 g/dL
same,gamma-GTP,"[…], time 28 day",1.2 IU/L
